Results on one compound are retold here after US11013709B2, “Highly purified eicosapentaenoic acid, as free fatty acid, reduces fecal calprotectin levels and prevents clinical relapse in ulcerative colitis patients” (S.L.A. PHARMA AG, priority 2017, dated 2021).

For series [1] the following is noted: cited from earlier work.
Series [2] can be described thus: Safety and tolerability in placebo-controlled trial of UC patients. The format is in vivo, human. The note with it: 60 patients with UC treated for 6 months. The procedure: (§1) The present invention provides for a double-blind, randomized, placebo-controlled study with UC patients with fecal calprotectin level ≥150 μg/g and in stable therapy for at least the 3 previous months. Each subject, receives either 2 grams daily of EPA-FFA (2 dosages of 500 mg sustained-release capsules, twice a day) or placebo (2 dosages of 500 mg sustained-release capsules of capric and caprylic acids, twice daily) for a 6 month period. At baseline, the patients undergo a total colonoscopy. Fecal calprotectin levels, clinical and laboratory assessments are performed at baseline, 3 and 6 months or at the time of clinical relapse, which has been defined as the occurrence of symptoms accompanied by an increase in the partial Mayo score ≥2 and/or requiring a change in therapy.
Patients who satisfied the inclusion criteria undergo blood tests, including C-reactive protein (CRP) (normal upper limit 5 mg/L) and a total colonoscopy with multiple biopsies at baseline. They are then randomized 1:1 to receive either 2 g daily of EPA-FFA (2×500 mg gastro-resistant sustained-release capsules, twice-daily) or 2 g of placebo (2×500 mg gastro-resistant sustained-release capsules of capric and caprylic acids that are triglycerides of the fractionated plant fatty acids, twice-daily) for a 6-month period. The entire study team are blinded to the treatment assignment.

In series [3] the test system is fecal calprotectin (FC). Put plainly: Double-blind, randomized, placebo-controlled study in UC patients: fecal calprotectin level (ELISA, Calprest). Type of series: in vivo, human. The following applies: over a six month period of administering highly purified EPA-FFA. Here is the method: as §1, with “therapy. […]” for “therapy.”
The primary endpoint is the proportion of patients achieving a 100-point reduction (100 μg/g or greater) from baseline in FC level at 6 months. […] A combined endpoint consisting of the number of patients achieving the primary and secondary endpoints is also calculated. […]
A fecal sample from the first bowel movement in the morning is stored in a refrigerator at 2-8° C. for a maximum of 24 h before performing the analysis. Quantification of FC levels is carried out using a quantitative, enzyme-linked immunosorbent assay (Calprest; Eurospital, Trieste, Italy), according to the manufacturers' instructions. […]

With `CC/C=C\C/C=C\C/C=C\C/C=C\C/C=C\CCCC(=O)O` [EPA-FFA, eicosapentaenoic acid], in series [1] (2 g daily for 8 weeks, patients with IBD and healthy volunteers), the “incorporation of EPA into plasma phospholipids and red blood cell membranes” value is “consistently incorporated into plasma phospholipids and red blood cell membranes”. Moreover, the metabolic conversion entry in series [1] is recorded as “quickly converted into docosahexaenoic acid via docosapentaenoic acid”. Further, in series [2], the serious adverse events entry is reported as “no serious adverse events”. In addition, the “reduction of FC” value in series [3] is listed as “at least 100 μg/g”.
